Measured values from PubChem BioAssay AID624265 (Broad Institute, 2012).
Several values for one entry are separate records, joined by “and”; a condition that tells them apart may be missing. Equal entries are not always repeated. Activity calls are given as the source filed them.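 Rule for the calls: active = at a dose no more than twice the top valid tested dose, the fitted curve drops below -35% activity change; inactive = the rest, rising-direction activity included.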

Experiments:
[1] = test system: NIH3T3 viability, CellTiter-Glo ATP luminescence; assay: NIH3T3 cell viability loss, ATP content – CellTiter-Glo luminescence, cherry-pick, set 2, cytotoxicity control for HSP40 inhibitor project, dose response (AID 624265);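 note: cells exposed to compound for 48 hours before the ATP read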;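 for activity change, negative = toxicity: 0% = median neutral control signal and -100% = no luminescence left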
[2] = as above; conditions: NIH3T3 viability, CellTiter-Glo ATP luminescence; at 50 µM (top of the series)

| Compound | AC35 [1] [µM] | activity change, negative = toxicity [2] |
| --- | --- | --- |
| CN(C)c1ccc(C=c2c3ccccc3n3c2c2c([n+]3C)CCCC2)cc1 | 33.3 |  |
| CC(C)N1CCN(c2ccc(OCC3COC(Cn4cncn4)(c4ccc(Cl)cc4Cl)O3)cc2)CC1 (centres undefined) | 12.4 |  |
| CC1=CC(=O)C=C(C)C1=NOS(=O)(=O)c1ccccc1 | 27.6 |  |
| Cc1ccc(S(=O)(=O)Nc2ccc(O)c3cccnc23)cc1 | 33 |  |
| CCc1cc(SC#N)cc(C)c1NC(=O)CCl | 49.6 |  |
| COc1cccc(/C=N/Nc2ncnc(Cl)c2N)c1O | 47.2 |  |
| CCC(=O)NC(c1ccco1)c1cc(Cl)c2cccnc2c1O (centres undefined) | 49.1 |  |
| CNc1ccc2oc(C[C@H]3O[C@@]4(CC[C@H]3C)O[C@H]([C@H](C)C(=O)c3ccc[nH]3)[C@H](C)C[C@H]4C)nc2c1C(=O)O | 11.1 |  |
| CCOC(=O)c1cc2c(=Cc3ccc(N(C)C)cc3)c3ccccc3n2[n+]1C | 29 |  |
| CN(C)c1nc(-c2ccccn2)nnc1-c1ccccc1 | 43.5 |  |
| Cc1ccc(Cl)cc1NC1=C/C(=N\S(=O)(=O)c2cccs2)c2ccccc2C1=O | 8.07 |  |
| Cc1c(Cc2ccccc2)c(NCCN(C)C)n2c(nc3ccccc32)c1C#N | 16.3 |  |
| Cc1oc2c(c1C(=O)c1ccccc1)C(=O)C(=O)c1ccccc1-2 | 8.43 |  |
| CC(C)N1CCN(c2ccc(OC[C@H]3CO[C@](Cn4cncn4)(c4ccc(Cl)cc4Cl)O3)cc2)CC1 | 30.8 |  |
| CCCCNc1c(-c2cccc(-c3ccc(OC)cc3)c2)nc2ccc(C)cn12 | 22.7 |  |
| CCCCOC(=O)/C=C/c1ccc(OC(=O)OC)c(OC(=O)OC)c1 | 50.7 |  |
| Oc1ccc(N=Nc2ccc3c(c2)OCCO3)c2cccnc12 | 50.2 |  |
| C=C1C(=O)C23CCC4C(C)(C(=O)OC)CCCC4(C)C2CCC1(O)C3 (centres undefined) | 10.1 |  |
| O=[N+]([O-])c1ccc(Sc2cccc[n+]2[O-])c2nonc12 | 4.46 |  |
| CC(=O)Oc1ccc(OC(C)=O)c(SCCCCCCl)c1 | 42.6 |  |
| O=C(c1ccccc1)c1ccc(Cn2cc(-c3ccccc3)nn2)cc1 |  | 5.39% (inactive) |
| C[C@@]12CCC3[C@@](CCC4[C@@]3(C)CCC[C@@]4(C)C(=O)NCc3ccccc3)(CC1=O)C2 (some centres undefined) |  | 2.89% (inactive) |
| CCCC1CCC(c2ccc(/C(N)=N/O)cc2)CC1 (centres undefined) |  | -4% (inactive) |

| Compound | AC35 [1] [µM] | activity change, negative = toxicity [2] |
| --- | --- | --- |
| O=[N+]([O-])c1cc(C(F)(F)F)ccc1NCCc1c[nH]c2ccc(O)cc12 |  | -9.08% (inactive) |
| CC(=O)C1=C(c2cccc([N+](=O)[O-])c2)N(C(C)=O)n2c(C)nnc2S1 |  | 4.36% (inactive) |
| Clc1ccc(-c2n[nH]c3c2CCC3)cc1Cl |  | 1.25% (inactive) |
| CC(=O)NC(c1ccc(C)cc1)c1cc([N+](=O)[O-])c2cccnc2c1O (centres undefined) |  | -0.602% (inactive) |
| Cc1nc(-c2ccccn2)nc(N(C)c2ccccc2)c1Cl |  | 9.36% (inactive) |
| CCOC(=O)N1C(=O)C2(CCCCC2)N(c2ccccc2Cl)C1=S |  | -8.13% (inactive) |
| c1ccc(-c2ccc(SCc3cccnc3)nn2)nc1 |  | -5.74% (inactive) |
| CCCCCCCn1c(=O)c(C(=O)OC)c(N)c2ccccc21 |  | -3.81% (inactive) |
| Cn1ccc(=Nc2ccc(NC(=O)c3ccc(N=c4ccn(C)c5ccc([N+](=O)[O-])cc45)cc3)cc2)cc1 |  | 1.51% (inactive) |
| COc1cccc(CC(=O)Nc2ccc3nc(C)sc3c2)c1 |  | 14.6% (inactive) |
| O=C(OCC(=O)C12CC3CC(CC(C3)C1)C2)c1ccc(O)cc1 |  | 0.345% (inactive) |
| O/N=C/c1ccccc1OCc1ccc(Cl)cc1 |  | 18.4% (inactive) |
| Cc1nc2ccc(C(C(F)(F)F)(C(F)(F)F)C(F)(F)F)cc2[nH]1 |  | 3.14% (inactive) |
| CC(C)CSc1n[nH]c(=S)s1 |  | 9% (inactive) |
| CCC(Oc1ccc(Br)cc1Cl)C(=O)Nc1nnc(C2CC2)s1 (centres undefined) |  | 5.54% (inactive) |
| O=C(/C(=N/N=C/c1ccc(O)c(O)c1O)c1ccccc1)c1ccccc1 |  | -5.73% (inactive) |
| O=C1Nc2c(Br)cccc2C1=O |  | -1.42% (inactive) |
| CCCCC(=O)NC(=S)NNC(=O)CCc1ccccc1 |  | -16.3% (inactive) |
| O=C(Nc1nnc(SCc2ccc(F)cc2)s1)c1ccccn1 |  | 5.25% (inactive) |
| CCN1C(=O)C(CC(=O)Nc2ccccc2Cl)N(NC(=O)c2cccc(F)c2)C1=S (centres undefined) |  | 11.9% (inactive) |
| O=C1c2ccccc2-n2c1nc1ccccc1c2=O |  | -25.8% (inactive) |
| Clc1nc(-c2ccccn2)nc2scc(-c3ccccc3)c12 |  | 5.16% (inactive) |
| Fc1ccc(CCNC(=S)Nc2ccc(F)c(Cl)c2)cc1 |  | -8.4% (inactive) |

| Compound | AC35 [1] [µM] | activity change, negative = toxicity [2] |
| --- | --- | --- |
| COc1cc(NS(=O)(=O)c2ccc(C)cc2)c2ncccc2c1 |  | 5.44% (inactive) |
| CC(C)(C)C(=O)C(Oc1ccc(Cl)cc1)n1cncn1 (centres undefined) |  | 9.05% (inactive) |
| O=C(O)c1ccccc1NC(c1ccccc1)c1ccc2cccnc2c1O (centres undefined) |  | -15.4% (inactive) |
| O=C(N/N=C/c1cc(Cl)cc([N+](=O)[O-])c1O)c1ccccc1NS(=O)(=O)c1cccs1 |  | 2.81% (inactive) |
| O=C(O)CSc1nc(-c2ccc(Cl)cc2)nc2c1oc1ccccc12 |  | -3.22% (inactive) |
| CC(NC(=S)NC1CCC(C(C)(C)C)CC1)c1ccccc1 (centres undefined) |  | 3.27% (inactive) |
| CCCn1c(=O)c(C(=O)NCc2ccc(OC)c(OC)c2)c(O)c2ccccc21 |  | 30.8% (inactive) |
| O=C1N(c2ccc(Cl)cc2)C(c2cccnc2)N2CCCN12 (centres undefined) |  | 17.3% (inactive) |
| O=C(CC1CC2CCC1C2)Nc1nc(-c2ccccn2)cs1 (centres undefined) |  | 10.2% (inactive) |
| Cn1nc(C(F)(F)F)c(C#N)c1N1CCN(c2ccc(F)cc2)CC1 |  | 21.3% (inactive) |
| Clc1ccc(COC(Cn2ccnc2)c2ccc(Cl)cc2Cl)c(Cl)c1 (centres undefined) |  | 5.58% (inactive) and 0.687% (inactive) |
| Cc1ccccc1C(=O)NNC(=S)NC(=O)c1ccc(Cl)cc1Cl |  | -5.68% (inactive) |
| O=C(Nc1nnc(-c2ccccc2)o1)c1ccc(Cl)cc1 |  | 29.9% (inactive) |
| c1ccc(-c2ccc(OCCCn3cncn3)cc2)cc1 |  | 5.17% (inactive) |
| CC1CCc2c(C(=O)Nc3ccccn3)csc2C1 (centres undefined) |  | -3.05% (inactive) |
| CCCSC(=S)c1c(C)[nH]n(-c2ccccc2)c1=O |  | -14.1% (inactive) |
| O=C(CN1CC[n+]2c(-c3cccs3)csc21)c1ccc(-c2ccccc2)cc1 |  | 28% (inactive) |
| c1ccc(CSc2ccc(-c3ccccn3)nn2)nc1 |  | -13% (inactive) |
| O=c1c(O)c(-c2ccccc2)oc2ccccc12 |  | -0.823% (inactive) |
| CCCn1nc(C(=O)N2CCN(S(=O)(=O)c3ccc(C)c(C)c3)CC2)c2ccccc2c1=O |  | 2.59% (inactive) |
| CC(C)(C)n1nc(Cc2cccc3ccccc23)c2c(N)ncnc21 |  | 9.94% (inactive) |
| O/N=C/c1cc(Br)ccc1OCc1ccccc1F |  | 7.25% (inactive) |
| Cc1ccc(NS(=O)(=O)c2ccc(N3CCN(c4ccc(O)cc4)CC3)c([N+](=O)[O-])c2)c(C)c1 |  | 24.6% (inactive) |
